How the values were obtained:
[1] = biological target: G protein-coupled receptor kinase 4 (Homo sapiens) (UniProt P32298); settings: Compound concentration 1000.0 nM
[2] = biological target: Citron Rho-interacting kinase (Homo sapiens) (UniProt O14578); settings: Compound concentration 1000.0 nM
[3] = biological target: Serine/threonine-protein kinase WNK3 (Homo sapiens) (UniProt Q9BYP7); settings: Compound concentration 1000.0 nM
[4] = biological target: SRSF protein kinase 1 (Homo sapiens) (UniProt Q96SB4); settings: Compound concentration 1000.0 nM
[5] = biological target: Dual specificity mitogen-activated protein kinase kinase 1 (Homo sapiens) (UniProt Q02750); settings: Compound concentration 1000.0 nM
[6] = biological target: Serine/threonine-protein kinase MAK (Homo sapiens) (UniProt P20794); settings: Compound concentration 1000.0 nM
[7] = biological target: Protein kinase C theta type (Homo sapiens) (UniProt Q04759); settings: Compound concentration 1000.0 nM
[8] = biological target: Serine/threonine-protein kinase 16 (Homo sapiens) (UniProt O75716); settings: Compound concentration 1000.0 nM
[9] = biological target: Receptor-interacting serine/threonine-protein kinase 2 (Homo sapiens) (UniProt O43353); settings: Compound concentration 1000.0 nM
[10] = biological target: Epidermal growth factor receptor (Homo sapiens) (UniProt P00533); settings: Compound concentration 1000.0 nM
[11] = biological target: Glycogen synthase kinase-3 beta (Homo sapiens) (UniProt P49841); settings: Compound concentration 1000.0 nM
[12] = biological target: Sodium-dependent dopamine transporter (Homo sapiens, UniProt Q01959); settings: Compound concentration 10.0 uM
[13] = biological target: Atypical kinase COQ8A, mitochondrial (Homo sapiens) (UniProt Q8NI60); settings: Compound concentration 1000.0 nM
[14] = biological target: 5-hydroxytryptamine receptor 1B (Homo sapiens) (UniProt P28222); settings: Compound concentration 10.0 uM
[15] = biological target: Ephrin type-A receptor 4 (Homo sapiens) (UniProt P54764); settings: Compound concentration 1000.0 nM
[16] = biological target: Dual specificity tyrosine-phosphorylation-regulated kinase 2 (Homo sapiens) (UniProt Q92630); settings: Compound concentration 1000.0 nM
[17] = tested on: Phosphatidylinositol 4,5-bisphosphate 3-kinase catalytic subunit alpha isoform (Homo sapiens), P42336 [E542K]; settings: Compound concentration 1000.0 nM
[18] = biological target: Inhibitor of nuclear factor kappa-B kinase subunit beta (Homo sapiens) (UniProt O14920); settings: Compound concentration 1000.0 nM
[19] = biological target: Cyclin-dependent kinase 19 (Homo sapiens) (UniProt Q9BWU1); settings: Compound concentration 1000.0 nM
[20] = tested on: ALK tyrosine kinase receptor (Homo sapiens), Q9UM73 [C1156Y]; settings: Compound concentration 1000.0 nM
[21] = tested on: Receptor-type tyrosine-protein kinase FLT3 (Homo sapiens), P36888 [UNDEFINED MUTATION]; settings: Compound concentration 1000.0 nM
[22] = biological target: Inhibitor of nuclear factor kappa-B kinase subunit epsilon (Homo sapiens) (UniProt Q14164); settings: Compound concentration 1000.0 nM
[23] = biological target: Cyclin-dependent kinase 11A (Homo sapiens) (UniProt Q9UQ88); settings: Compound concentration 1000.0 nM
[24] = biological target: Casein kinase I isoform gamma-1 (Homo sapiens) (UniProt Q9HCP0); settings: Compound concentration 1000.0 nM
[25] = biological target: Serine/threonine-protein kinase RIO2 (Homo sapiens) (UniProt Q9BVS4); settings: Compound concentration 1000.0 nM
[26] = biological target: Interleukin-1 receptor-associated kinase 3 (Homo sapiens) (UniProt Q9Y616); settings: Compound concentration 1000.0 nM
[27] = biological target: Macrophage-stimulating protein receptor (Homo sapiens) (UniProt Q04912); settings: Compound concentration 1000.0 nM
[28] = biological target: Serine/threonine-protein kinase TBK1 (Homo sapiens) (UniProt Q9UHD2); settings: Compound concentration 1000.0 nM
[29] = biological target: Ephrin type-A receptor 1 (Homo sapiens) (UniProt P21709); settings: Compound concentration 1000.0 nM
[30] = tested on: Hepatocyte growth factor receptor (Homo sapiens), P08581 [M1250T]; settings: Compound concentration 1000.0 nM
[31] = biological target: Myosin light chain kinase (Homo sapiens) (UniProt Q32MK0); settings: Compound concentration 1000.0 nM
[32] = biological target: Serine/threonine-protein kinase D3 (Homo sapiens) (UniProt O94806); settings: Compound concentration 1000.0 nM
[33] = biological target: Dual specificity protein kinase CLK4 (Homo sapiens) (UniProt Q9HAZ1); settings: Compound concentration 1000.0 nM
[34] = biological target: Sodium-dependent noradrenaline transporter (Homo sapiens) (UniProt P23975); settings: Compound concentration 10.0 uM
[35] = biological target: Serine/threonine-protein kinase MARK1 (Homo sapiens) (UniProt Q9P0L2); settings: Compound concentration 1000.0 nM
[36] = biological target: 5-hydroxytryptamine receptor 1D (Homo sapiens) (UniProt P28221); settings: Compound concentration 10.0 uM
[37] = biological target: cAMP-dependent protein kinase catalytic subunit beta (Homo sapiens) (UniProt P22694); settings: Compound concentration 1000.0 nM
[38] = biological target: Homeodomain-interacting protein kinase 4 (Homo sapiens) (UniProt Q8NE63); settings: Compound concentration 1000.0 nM
[39] = biological target: Proto-oncogene tyrosine-protein kinase receptor Ret (Homo sapiens) (UniProt P07949); settings: Compound concentration 1000.0 nM
[40] = biological target: Serine/threonine-protein kinase SBK1 (Homo sapiens) (UniProt Q52WX2); settings: Compound concentration 1000.0 nM
[41] = biological target: Insulin-like growth factor 1 receptor (Homo sapiens) (UniProt P08069); settings: Compound concentration 1000.0 nM
[42] = biological target: Serine/threonine-protein kinase ULK3 (Homo sapiens) (UniProt Q6PHR2); settings: Compound concentration 1000.0 nM
[43] = biological target: 1-phosphatidylinositol 3-phosphate 5-kinase (Homo sapiens) (UniProt Q9Y2I7); settings: Compound concentration 1000.0 nM
[44] = biological target: NUAK family SNF1-like kinase 1 (Homo sapiens) (UniProt O60285); settings: Compound concentration 1000.0 nM
[45] = biological target: 5'-AMP-activated protein kinase catalytic subunit alpha-1 (Homo sapiens) (UniProt Q13131); settings: Compound concentration 1000.0 nM

Sequence of ALK tyrosine kinase receptor (Homo sapiens), Q9UM73 [C1156Y] (Q9UM73 whole entry C1156Y, looked up): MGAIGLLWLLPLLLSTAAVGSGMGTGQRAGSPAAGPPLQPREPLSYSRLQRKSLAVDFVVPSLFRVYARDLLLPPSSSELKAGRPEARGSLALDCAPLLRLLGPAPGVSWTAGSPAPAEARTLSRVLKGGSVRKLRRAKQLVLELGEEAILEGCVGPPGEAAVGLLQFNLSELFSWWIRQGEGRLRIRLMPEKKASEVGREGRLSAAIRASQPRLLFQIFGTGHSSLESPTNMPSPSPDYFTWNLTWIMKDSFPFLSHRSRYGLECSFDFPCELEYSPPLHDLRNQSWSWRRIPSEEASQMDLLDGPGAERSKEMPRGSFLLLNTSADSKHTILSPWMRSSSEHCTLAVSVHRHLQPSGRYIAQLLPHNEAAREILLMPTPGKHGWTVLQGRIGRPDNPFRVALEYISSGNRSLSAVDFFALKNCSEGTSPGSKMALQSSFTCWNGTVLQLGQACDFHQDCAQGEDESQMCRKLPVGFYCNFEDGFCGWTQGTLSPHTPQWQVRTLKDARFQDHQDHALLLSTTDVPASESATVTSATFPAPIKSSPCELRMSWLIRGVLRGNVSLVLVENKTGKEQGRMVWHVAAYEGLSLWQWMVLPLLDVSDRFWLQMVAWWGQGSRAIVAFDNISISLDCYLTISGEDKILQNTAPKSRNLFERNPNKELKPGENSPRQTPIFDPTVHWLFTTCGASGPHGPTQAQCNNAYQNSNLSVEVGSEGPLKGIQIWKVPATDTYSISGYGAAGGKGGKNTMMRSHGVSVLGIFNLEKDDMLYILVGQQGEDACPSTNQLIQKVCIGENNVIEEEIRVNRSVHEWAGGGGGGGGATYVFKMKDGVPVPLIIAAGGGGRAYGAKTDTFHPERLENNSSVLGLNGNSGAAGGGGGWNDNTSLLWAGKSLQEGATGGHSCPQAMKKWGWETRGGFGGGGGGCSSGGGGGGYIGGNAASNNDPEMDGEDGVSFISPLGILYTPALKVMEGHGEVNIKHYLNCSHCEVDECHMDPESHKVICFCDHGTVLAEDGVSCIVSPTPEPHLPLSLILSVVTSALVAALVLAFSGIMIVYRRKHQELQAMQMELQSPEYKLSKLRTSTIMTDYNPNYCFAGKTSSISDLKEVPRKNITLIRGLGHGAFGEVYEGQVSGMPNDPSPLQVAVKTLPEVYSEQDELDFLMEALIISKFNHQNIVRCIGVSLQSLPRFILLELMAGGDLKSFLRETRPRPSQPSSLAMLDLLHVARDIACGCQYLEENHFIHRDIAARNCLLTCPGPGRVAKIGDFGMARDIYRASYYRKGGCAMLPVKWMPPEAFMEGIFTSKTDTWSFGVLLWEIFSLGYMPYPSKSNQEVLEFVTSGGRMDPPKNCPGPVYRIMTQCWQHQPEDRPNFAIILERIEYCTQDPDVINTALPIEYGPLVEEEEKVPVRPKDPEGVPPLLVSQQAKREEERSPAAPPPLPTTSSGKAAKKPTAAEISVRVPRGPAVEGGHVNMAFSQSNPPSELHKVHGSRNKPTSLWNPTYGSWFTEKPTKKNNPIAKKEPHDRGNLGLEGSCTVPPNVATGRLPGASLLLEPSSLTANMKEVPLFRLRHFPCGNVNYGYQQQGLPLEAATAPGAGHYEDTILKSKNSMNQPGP
Sequence of Ephrin type-A receptor 4 (Homo sapiens) (P54764 whole entry): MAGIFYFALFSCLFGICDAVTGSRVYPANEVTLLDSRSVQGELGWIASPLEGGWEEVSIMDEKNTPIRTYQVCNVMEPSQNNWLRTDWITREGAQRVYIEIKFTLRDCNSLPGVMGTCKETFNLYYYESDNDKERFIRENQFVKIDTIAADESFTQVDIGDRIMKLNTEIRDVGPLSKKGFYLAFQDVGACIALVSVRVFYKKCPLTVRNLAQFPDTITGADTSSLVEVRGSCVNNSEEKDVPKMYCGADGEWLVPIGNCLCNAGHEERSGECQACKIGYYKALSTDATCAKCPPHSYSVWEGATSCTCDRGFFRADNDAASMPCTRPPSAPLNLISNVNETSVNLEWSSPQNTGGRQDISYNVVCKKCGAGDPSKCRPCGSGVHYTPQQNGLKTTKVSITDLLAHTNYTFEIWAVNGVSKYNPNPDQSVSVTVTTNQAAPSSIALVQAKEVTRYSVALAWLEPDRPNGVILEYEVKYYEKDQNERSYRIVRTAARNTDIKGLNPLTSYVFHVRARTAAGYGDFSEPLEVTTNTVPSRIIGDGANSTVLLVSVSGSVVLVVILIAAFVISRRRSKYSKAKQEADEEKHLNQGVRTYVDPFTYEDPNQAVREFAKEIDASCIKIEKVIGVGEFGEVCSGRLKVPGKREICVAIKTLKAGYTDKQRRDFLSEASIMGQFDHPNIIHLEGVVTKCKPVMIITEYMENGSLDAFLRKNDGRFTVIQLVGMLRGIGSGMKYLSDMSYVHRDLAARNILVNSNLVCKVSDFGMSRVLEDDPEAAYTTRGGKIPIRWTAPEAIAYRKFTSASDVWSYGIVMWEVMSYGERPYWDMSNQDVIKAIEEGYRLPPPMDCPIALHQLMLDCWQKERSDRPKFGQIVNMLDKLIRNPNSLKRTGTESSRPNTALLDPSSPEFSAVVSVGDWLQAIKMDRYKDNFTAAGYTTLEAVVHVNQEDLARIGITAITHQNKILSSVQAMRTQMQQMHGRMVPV
Sequence of Dual specificity tyrosine-phosphorylation-regulated kinase 2 (Homo sapiens) (Q92630 whole entry, canonical isoform): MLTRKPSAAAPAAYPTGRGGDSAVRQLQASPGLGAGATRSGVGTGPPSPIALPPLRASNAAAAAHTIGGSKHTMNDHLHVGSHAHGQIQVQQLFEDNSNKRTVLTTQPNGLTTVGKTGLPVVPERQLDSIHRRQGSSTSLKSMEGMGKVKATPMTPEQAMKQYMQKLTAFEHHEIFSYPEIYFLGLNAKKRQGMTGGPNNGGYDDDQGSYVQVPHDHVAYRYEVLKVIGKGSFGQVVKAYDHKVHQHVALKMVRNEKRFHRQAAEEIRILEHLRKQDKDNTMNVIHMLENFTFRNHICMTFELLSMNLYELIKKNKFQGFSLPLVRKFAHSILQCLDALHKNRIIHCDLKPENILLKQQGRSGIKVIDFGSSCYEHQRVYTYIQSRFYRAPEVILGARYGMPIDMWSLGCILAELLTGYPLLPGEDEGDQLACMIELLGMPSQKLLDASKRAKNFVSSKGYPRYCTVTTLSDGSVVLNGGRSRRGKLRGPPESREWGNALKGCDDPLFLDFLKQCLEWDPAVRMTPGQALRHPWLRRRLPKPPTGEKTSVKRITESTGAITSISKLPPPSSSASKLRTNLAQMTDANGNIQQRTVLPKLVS
Sequence of Cyclin-dependent kinase 19 (Homo sapiens) (Q9BWU1 whole entry): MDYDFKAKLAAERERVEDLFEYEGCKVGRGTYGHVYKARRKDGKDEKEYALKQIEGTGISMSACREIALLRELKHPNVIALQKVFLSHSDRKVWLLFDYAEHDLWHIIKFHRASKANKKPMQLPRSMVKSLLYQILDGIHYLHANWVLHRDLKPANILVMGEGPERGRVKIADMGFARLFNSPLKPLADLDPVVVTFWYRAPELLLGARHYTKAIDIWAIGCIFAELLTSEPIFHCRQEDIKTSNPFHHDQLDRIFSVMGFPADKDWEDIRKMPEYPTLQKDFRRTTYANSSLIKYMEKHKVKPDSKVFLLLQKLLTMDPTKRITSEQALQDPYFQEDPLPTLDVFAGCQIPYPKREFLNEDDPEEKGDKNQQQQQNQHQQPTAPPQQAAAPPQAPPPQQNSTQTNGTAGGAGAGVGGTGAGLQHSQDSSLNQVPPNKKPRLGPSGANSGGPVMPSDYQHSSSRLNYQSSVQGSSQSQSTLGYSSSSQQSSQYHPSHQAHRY
Sequence of Myosin light chain kinase (Homo sapiens) (Q32MK0 whole entry): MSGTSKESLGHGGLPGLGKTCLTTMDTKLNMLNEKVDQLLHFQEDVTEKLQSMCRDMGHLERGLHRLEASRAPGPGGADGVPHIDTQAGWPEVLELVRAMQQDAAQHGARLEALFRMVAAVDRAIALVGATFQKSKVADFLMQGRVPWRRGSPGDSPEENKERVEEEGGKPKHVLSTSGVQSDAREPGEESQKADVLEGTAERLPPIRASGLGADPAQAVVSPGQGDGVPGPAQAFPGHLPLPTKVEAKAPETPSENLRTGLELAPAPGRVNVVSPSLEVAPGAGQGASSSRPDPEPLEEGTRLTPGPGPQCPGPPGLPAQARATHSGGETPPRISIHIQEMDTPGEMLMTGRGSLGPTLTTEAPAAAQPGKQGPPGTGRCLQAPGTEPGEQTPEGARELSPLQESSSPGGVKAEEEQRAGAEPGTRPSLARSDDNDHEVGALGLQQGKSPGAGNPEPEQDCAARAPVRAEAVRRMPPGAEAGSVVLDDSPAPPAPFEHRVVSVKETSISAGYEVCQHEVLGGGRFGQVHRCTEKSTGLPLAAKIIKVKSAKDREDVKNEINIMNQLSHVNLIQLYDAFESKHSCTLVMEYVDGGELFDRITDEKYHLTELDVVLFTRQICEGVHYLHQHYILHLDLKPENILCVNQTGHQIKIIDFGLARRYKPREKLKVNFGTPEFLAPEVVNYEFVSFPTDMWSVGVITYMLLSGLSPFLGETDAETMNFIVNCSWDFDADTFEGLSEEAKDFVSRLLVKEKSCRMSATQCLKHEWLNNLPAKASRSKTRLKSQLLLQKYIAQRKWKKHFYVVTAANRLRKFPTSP
Sequence of Receptor-interacting serine/threonine-protein kinase 2 (Homo sapiens) (O43353 whole entry): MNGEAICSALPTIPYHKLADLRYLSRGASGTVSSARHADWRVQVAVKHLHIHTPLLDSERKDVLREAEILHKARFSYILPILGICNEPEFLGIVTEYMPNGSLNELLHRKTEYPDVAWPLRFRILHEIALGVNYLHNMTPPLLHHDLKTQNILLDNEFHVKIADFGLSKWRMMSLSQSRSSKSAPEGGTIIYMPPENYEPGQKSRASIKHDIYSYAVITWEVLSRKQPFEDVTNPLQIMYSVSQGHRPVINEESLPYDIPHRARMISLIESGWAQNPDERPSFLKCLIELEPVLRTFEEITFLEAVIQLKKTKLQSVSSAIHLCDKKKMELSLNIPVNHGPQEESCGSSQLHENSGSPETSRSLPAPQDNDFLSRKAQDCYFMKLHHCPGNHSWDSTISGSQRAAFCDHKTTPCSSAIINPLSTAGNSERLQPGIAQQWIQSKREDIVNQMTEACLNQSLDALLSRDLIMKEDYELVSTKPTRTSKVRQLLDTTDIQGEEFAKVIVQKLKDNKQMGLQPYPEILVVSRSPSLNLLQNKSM

`Cc1nc(N2CC[C@@H](O)C2)ncc1-c1cc(C(F)(F)F)cc2[nH]ncc12` [TP-004] was tested, and the residual activity [1] was 86%, the residual activity [2] was 82% and the residual activity [3] was 67%. The residual activity [4] was 100%, the residual activity [5] was 83% and the residual activity [6] was 100%. For the same compound, the residual activity [7] was 100%, the residual activity [8] was 92% and the residual activity [9] was 95%. It also gave a residual activity [10] of 71%, a residual activity [11] of 65% and an inhibition [12] of 75.2%. It also gave a residual activity [13] of 100%, an inhibition [14] of 22.3% and a residual activity [15] of 100%. The residual activity [16] was 79%, the residual activity [17] was 52% and the residual activity [18] was 77%. For the same compound, the residual activity [19] was 100%, the residual activity [20] was 100% and the residual activity [21] was 54%. The residual activity [22] was 89%, the residual activity [23] was 100% and the residual activity [24] was 78%. The residual activity [25] was 100%, the residual activity [26] was 85% and the residual activity [27] was 100%. The residual activity [28] was 82%, the residual activity [29] was 85% and the residual activity [30] was 92%. For the same compound, the residual activity [31] was 98%, the residual activity [32] was 100% and the residual activity [33] was 92%. It also gave an inhibition [34] of 36.9%, a residual activity [35] of 74% and an inhibition [36] of -8.55%. For the same compound, the residual activity [37] was 79%, the residual activity [38] was 82% and the residual activity [39] was 84%. The residual activity [40] was 82%, the residual activity [41] was 100% and the residual activity [42] was 78%. It also gave a residual activity [43] of 88%, a residual activity [44] of 83% and a residual activity [45] of 89%.
